Test system: patients with MUM
Assay: Adverse events regardless of study drug relationship
Format: in vivo, human
Procedure: Routine safety assessments, including laboratory assessments, physical examinations, vital signs and electrocardiograms (ECGs), were conducted at regular intervals throughout the study and more frequently as needed following patient assessment by the treating physician. Adverse events (AEs) were assessed continuously according to the National Cancer Institute Common Terminology Criteria for Adverse Events (NCI-CTCAE) v4.03.

In the case of `CC1(N)CCN(c2cccnc2NC(=O)c2nc(-c3ncccc3C(F)(F)F)cnc2N)CC1` [LXS196], the “ALT increased, all grades” value (100 mg QD) is reported as 0 n (%), the “ALT increased, grade ≥3” value (100 mg QD) is reported as 0 n (%) and the “AST increased, all grades” value (100 mg QD) is reported as 0 n (%). The “AST increased, grade ≥3” value (100 mg QD) was 0 n (%), the “Abdominal pain upper, all grades” value (100 mg QD) was 0 n (%) and the “Abdominal pain upper, grade ≥3” value (100 mg QD) was 0 n (%). The “Asthenia, all grades” value (100 mg QD) was 0 n (%), the “Asthenia, grade ≥3” value (100 mg QD) was 0 n (%) and the “Blood creatinine increased, all grades” value (100 mg QD) was 0 n (%). The “Blood creatinine increased, grade ≥3” value (100 mg QD) was 0 n (%), the “Constipation, all grades” value (100 mg QD) was 1 (33.3) n (%) and the “Constipation, grade ≥3” value (100 mg QD) was 0 n (%). The “Decreased appetite, all grades” value (100 mg QD) was 0 n (%), the “Decreased appetite, grade ≥3” value (100 mg QD) was 0 n (%) and the “Dermatitis acneiform, all grades” value (100 mg QD) was 0 n (%). The “Dermatitis acneiform, grade ≥3” value (100 mg QD) was 0 n (%), the “Diarrhoea, all grades” value (100 mg QD) was 2 (66.7) n (%) and the “Diarrhoea, grade ≥3” value (100 mg QD) was 0 n (%). The “Dry skin, all grades” value (100 mg QD) was 0 n (%), the “Dry skin, grade ≥3” value (100 mg QD) was 0 n (%) and the “Fatigue, all grades” value (100 mg QD) was 0 n (%). The “Fatigue, grade ≥3” value (100 mg QD) was 0 n (%), the “Hypotension, all grades” value (100 mg QD) was 0 n (%) and the “Hypotension, grade ≥3” value (100 mg QD) was 0 n (%). The “Nasopharyngitis, all grades” value (100 mg QD) was 0 n (%), the “Nasopharyngitis, grade ≥3” value (100 mg QD) was 0 n (%) and the “Nausea, all grades” value (100 mg QD) was 2 (66.7) n (%). The “Nausea, grade ≥3” value (100 mg QD) was 0 n (%), the “Neutropenia, all grades” value (100 mg QD) was 0 n (%) and the “Neutropenia, grade ≥3” value (100 mg QD) was 0 n (%). The “Oedema peripheral, all grades” value (100 mg QD) was 1 (33.3) n (%), the “Oedema peripheral, grade ≥3” value (100 mg QD) was 0 n (%) and the “Patients with ≥1 AE, all grades” value (100 mg QD) was 3 (100) n (%). For the same compound, the “Patients with ≥1 AE, grade ≥3” value (100 mg QD) was 0 n (%), the “Rash, all grades” value (100 mg QD) was 0 n (%) and the “Rash, grade ≥3” value (100 mg QD) was 0 n (%). The “Vomiting, all grades” value (100 mg QD) was 2 (66.7) n (%), the “Vomiting, grade ≥3” value (100 mg QD) was 0 n (%) and the “ALT increased, all grades” value (200 mg BID) was 1 (16.7) n (%). For the same compound, the “ALT increased, grade ≥3” value (200 mg BID) was 0 n (%), the “AST increased, all grades” value (200 mg BID) was 1 (16.7) n (%) and the “AST increased, grade ≥3” value (200 mg BID) was 0 n (%). For the same compound, the “Abdominal pain upper, all grades” value (200 mg BID) was 0 n (%), the “Abdominal pain upper, grade ≥3” value (200 mg BID) was 0 n (%) and the “Asthenia, all grades” value (200 mg BID) was 1 (16.7) n (%). The “Asthenia, grade ≥3” value (200 mg BID) was 0 n (%), the “Blood creatinine increased, all grades” value (200 mg BID) was 3 (50.0) n (%) and the “Blood creatinine increased, grade ≥3” value (200 mg BID) was 0 n (%). The “Constipation, all grades” value (200 mg BID) was 1 (16.7) n (%), the “Constipation, grade ≥3” value (200 mg BID) was 0 n (%) and the “Decreased appetite, all grades” value (200 mg BID) was 1 (16.7) n (%). The “Decreased appetite, grade ≥3” value (200 mg BID) was 0 n (%), the “Dermatitis acneiform, all grades” value (200 mg BID) was 1 (16.7) n (%) and the “Dermatitis acneiform, grade ≥3” value (200 mg BID) was 0 n (%). The “Diarrhoea, all grades” value (200 mg BID) was 3 (50.0) n (%), the “Diarrhoea, grade ≥3” value (200 mg BID) was 0 n (%) and the “Dry skin, all grades” value (200 mg BID) was 1 (16.7) n (%). The “Dry skin, grade ≥3” value (200 mg BID) was 0 n (%), the “Fatigue, all grades” value (200 mg BID) was 0 n (%) and the “Fatigue, grade ≥3” value (200 mg BID) was 0 n (%). For the same compound, the “Hypotension, all grades” value (200 mg BID) was 0 n (%), the “Hypotension, grade ≥3” value (200 mg BID) was 0 n (%) and the “Nasopharyngitis, all grades” value (200 mg BID) was 1 (16.7) n (%). For the same compound, the “Nasopharyngitis, grade ≥3” value (200 mg BID) was 0 n (%), the “Nausea, all grades” value (200 mg BID) was 3 (50.0) n (%) and the “Nausea, grade ≥3” value (200 mg BID) was 0 n (%). The “Neutropenia, all grades” value (200 mg BID) was 1 (16.7) n (%), the “Neutropenia, grade ≥3” value (200 mg BID) was 0 n (%) and the “Oedema peripheral, all grades” value (200 mg BID) was 2 (33.3) n (%). The “Oedema peripheral, grade ≥3” value (200 mg BID) was 0 n (%), the “Patients with ≥1 AE, all grades” value (200 mg BID) was 6 (100) n (%) and the “Patients with ≥1 AE, grade ≥3” value (200 mg BID) was 3 (50.0) n (%). For the same compound, the “Rash, all grades” value (200 mg BID) was 0 n (%), the “Rash, grade ≥3” value (200 mg BID) was 0 n (%) and the “Vomiting, all grades” value (200 mg BID) was 0 n (%). For the same compound, the “Vomiting, grade ≥3” value (200 mg BID) was 0 n (%), the “ALT increased, all grades” value (200 mg QD) was 1 (25.0) n (%) and the “ALT increased, grade ≥3” value (200 mg QD) was 0 n (%). The “AST increased, all grades” value (200 mg QD) was 0 n (%), the “AST increased, grade ≥3” value (200 mg QD) was 0 n (%) and the “Abdominal pain upper, all grades” value (200 mg QD) was 0 n (%). The “Abdominal pain upper, grade ≥3” value (200 mg QD) was 0 n (%), the “Asthenia, all grades” value (200 mg QD) was 1 (25.0) n (%) and the “Asthenia, grade ≥3” value (200 mg QD) was 0 n (%). For the same compound, the “Blood creatinine increased, all grades” value (200 mg QD) was 1 (25.0) n (%), the “Blood creatinine increased, grade ≥3” value (200 mg QD) was 0 n (%) and the “Constipation, all grades” value (200 mg QD) was 3 (75.0) n (%). The “Constipation, grade ≥3” value (200 mg QD) was 0 n (%), the “Decreased appetite, all grades” value (200 mg QD) was 1 (25.0) n (%) and the “Decreased appetite, grade ≥3” value (200 mg QD) was 0 n (%). For the same compound, the “Dermatitis acneiform, all grades” value (200 mg QD) was 0 n (%), the “Dermatitis acneiform, grade ≥3” value (200 mg QD) was 0 n (%) and the “Diarrhoea, all grades” value (200 mg QD) was 2 (50.0) n (%). For the same compound, the “Diarrhoea, grade ≥3” value (200 mg QD) was 0 n (%), the “Dry skin, all grades” value (200 mg QD) was 0 n (%) and the “Dry skin, grade ≥3” value (200 mg QD) was 0 n (%). The “Fatigue, all grades” value (200 mg QD) was 0 n (%), the “Fatigue, grade ≥3” value (200 mg QD) was 0 n (%) and the “Hypotension, all grades” value (200 mg QD) was 0 n (%). For the same compound, the “Hypotension, grade ≥3” value (200 mg QD) was 0 n (%), the “Nasopharyngitis, all grades” value (200 mg QD) was 0 n (%) and the “Nasopharyngitis, grade ≥3” value (200 mg QD) was 0 n (%). The “Nausea, all grades” value (200 mg QD) was 2 (50.0) n (%), the “Nausea, grade ≥3” value (200 mg QD) was 1 (25.0) n (%) and the “Neutropenia, all grades” value (200 mg QD) was 0 n (%). The “Neutropenia, grade ≥3” value (200 mg QD) was 0 n (%), the “Oedema peripheral, all grades” value (200 mg QD) was 1 (25.0) n (%) and the “Oedema peripheral, grade ≥3” value (200 mg QD) was 0 n (%). For the same compound, the “Patients with ≥1 AE, all grades” value (200 mg QD) was 4 (100) n (%), the “Patients with ≥1 AE, grade ≥3” value (200 mg QD) was 3 (75.0) n (%) and the “Rash, all grades” value (200 mg QD) was 0 n (%). For the same compound, the “Rash, grade ≥3” value (200 mg QD) was 0 n (%), the “Vomiting, all grades” value (200 mg QD) was 2 (50.0) n (%) and the “Vomiting, grade ≥3” value (200 mg QD) was 1 (25.0) n (%).

Reference: PMC10006169, “A phase I trial of LXS196, a protein kinase C (PKC) inhibitor, for metastatic uveal melanoma” (British Journal of Cancer, 2023)
